What was measured:
MCF-10A cells = assay: MTT assay, non-tumoral MCF-10A cells; assay type: cell-based, human; details: 72 h exposure
Text: Additionally, we investigated the selectivity of all the synthesized Ru-NHC complexes on the cancer cells by studying their capability to interfere with the growth of two non-tumoral cells, namely the MCF-10A and BALB/3T3 cells.
The adopted cells (breast cancer MCF-7 and MDA-MB-231 and human mammary epithelial MCF-10A cells) were purchased from American Type Culture Collection (ATCC, Manassas, VA, USA) and cultured as indicated. The mouse embryonic fibroblast BALB/3T3 and neuroblastoma SH-SY5Y were also obtained from American Type Culture Collection (ATCC, Manassas, VA, USA) and cultured in DMEM high glucose supplemented with 100 U mL^−1 penicillin/streptomycin and 10% bovine calf serum (BCS) or 10% fetal bovine serum (FBS), respectively.
MTT assay (Sigma Aldrich (St. Louis, MO, USA)) was used for the in vitro anticancer activity evaluation, as previously reported. The Ru-NHC complexes were employed at different concentrations (0.1–1–10–25–50–100 μM) for 72 h. The IC50 values were calculated from the percent (%) of control using GraphPad Prism 9 (GraphPad Software, La Jolla, CA, USA).

[1] = tested on: Escherichia coli (ATCC 25922); assay: MIC/MBC broth dilution, E. coli; assay type: cell-based; details: broth dilution, 37 °C, 18 h
Experimental: (§1) One Gram-negative (Escherichia coli (ATCC® 25922TM)) and two Gram-positive bacterial strains (Enterococcus faecalis (ATCC® 19433TM) and Staphylococcus aureus (ATCC® 23235TM)] were used for MIC and MBC values determination, according to CLSI guidelines. MIC represents the lowest concentration of compound inhibiting the visible microbial growth and expressed as μg/mL; MBC is the lowest concentration able to kill the bacteria. Both determinations were performed by the broth dilution method. Bacteria were grown overnight in LB medium (2%), then diluted to a density of […] colony forming units (CFUs) per mL, plated in sterile 96-well microplates, obtaining about 10^5 cells/ well. Increasing concentrations of the Ru-NHC complexes (1, 10, 25, 50, 70, 100 µg/mL) were used. After incubation at 37 °C for 18 h (overnight), bacterial growth was checked at a wavelength of 600 nm using a Multiskan spectrophotometer (model Multiskan Ex Microplate; Thermo Scientific, Nyon, Switzerland) and MIC or MBC values were determined, comparing cell density with a positive control (bacterial cells grown in LB medium were added with only the vehicle, DMSO). Each experiment was carried out five times, in triplicate. Ampicillin (Sigma Aldrich A9393) was used as the control for strain sensitivity.

[2] = tested on: Staphylococcus aureus (ATCC 23235); assay: MIC/MBC broth dilution, S. aureus; assay type: cell-based; details: broth dilution, 37 °C, 18 h
Experimental: as §1

[3] = tested on: Enterococcus faecalis (ATCC 19433); assay: MIC/MBC broth dilution, E. faecalis; assay type: cell-based; details: broth dilution, 37 °C, 18 h
Experimental: as §1

[4] = DPPH radical scavenging assay; details: 30 min, room temperature, 517 nm
Experimental: Generally, the DPPH radical is able to accept hydrogen radicals or an electron, turning into a stable molecule. The interaction with Ru-NHC complexes induces the reduction of DPPH radical intensity measured at 517 nm, due to the conversion of the purple DPPH radical into its corresponding yellow hydrazine form.
The radical scavenging properties of Ru-NHC complexes on the 1,1-diphenyl-2-picryl-hydrazil (DPPH) radical were evaluated as described by Fazio et al., with minor corrections. Then, 20 μL of each Ru complex, properly dissolved in DMSO, were mixed with methanol DPPH 0.1 mM (180 μL) in a 48-well plate obtaining […] different concentrations (10, 50, 100, 200 and 300 µg/mL). Next, 20 μL of DMSO in 180 μL of DPPH methanol solution was diluted as the control. The mixture was vigorously shaken and incubated (room temperature, 30 min, in the dark). The scavenging activity was measured at 517 nm, using a microplate reader. DPPH radical scavenging was expressed as inhibition percentages (%IDPPH) for the Ru complexes compared to the initial concentration of DPPH (control) according to the formula: %IDPPH=A0−A/A0×100 where A0 is the absorbance at 517 nm of the control reaction and A is the absorbance at 517 nm in the presence of samples.
The obtained IDPPH percentages allowed the IC50 values determination, using GraphPad Prism 9 software (GraphPad Inc., San Diego, CA, USA). Trolox was employed as a positive control.

MDA-MB-231 cells = assay: TUNEL assay, apoptosis; assay type: cell-based, human; details: complexes at their IC50 values, 24 h
Experimental: Thus, using the TUNEL assay we determined whether the Ru-NHC complexes RANHC-V and -VI were able to trigger apoptosis in the MDA-MB-231 cells. The latter were first exposed to the Ru complexes, used at their IC50 values for 24 h, and then subjected to the rTdT enzyme, as indicated in the experimental section.
A TUNEL assay was used for cells apoptosis detection, following the manufacturer’s protocols (CF™488A TUNEL Assay Apoptosis Detection Kit, Biotium, Hayward, CA, USA), with some changes. Briefly, cells were seeded and then processed, as described. DAPI (0.2 μg/mL, Sigma Aldrich, Milan, Italy) staining was adopted for nuclei. A fluorescence microscope (Leica DM 6000) was used for fluorescence detection (20x magnification). LAS-X software was used to acquire and process all the images that are representative of three different experiments.
Figure 5 TUNEL assay. MDA-MB-231 breast cancer cells were treated with Ru-NHC complexes RANHC-V and -VI at their IC50 values or with the vehicle (CTRL) for 24 h. Then, cells were incubated with rTdT enzyme and then observed and imaged under an inverted fluorescence microscope at 20× magnification (see Materials and Methods section). Panels (A): DAPI (λex/λem = 350/460 nm); Panels (B): CF^TM488A (λex/λem = 490/515 nm); Panels (C): show the overlay. Fields are representative of three independent experiments.

| SMILES | IC50 [4] [µM] | IC50 (MCF-10A cells) [µM] | M.I.C. E. coli [1] [µg/mL] | M.I.C. S. aureus [2] [µg/mL] | M.I.C. E. faecalis [3] [µg/mL] | apoptosis (TUNEL) (MDA-MB-231 cells) |
| --- | --- | --- | --- | --- | --- | --- |
| COC(Cn1ccn(C)[c]1=[Ru]([Cl])[Cl])c1ccccc1.Cc1ccc(C(C)C)cc1 (centres unmarked) [RANHC-I] | 369.6 ± 1.1 | > 100 | 50 | 25 | 50 | – |
| CN1C=CN2CC(c3ccccc3)[O+](C)[Ru]([Cl])=[C]12.Cc1ccc(C(C)C)cc1.F[P-](F)(F)(F)(F)F (centres unmarked) [RANHC-III] | 44.2 ± 1.2 | > 100 | 25 | 25 | 50 | – |
| COC(Cn1[c](=[Ru]([Cl])[Cl])n(C)c2ccccc21)c1ccccc1.Cc1ccc(C(C)C)cc1 (centres unmarked) [RANHC-VI] | 161.6 ± 1 | 90.7 ± 1.2 | 25 | 25 | 50 | TUNEL-positive |
| COC(Cn1c(Cl)c(Cl)n(C)[c]1=[Ru]([Cl])[Cl])c1ccccc1.Cc1ccc(C(C)C)cc1 (centres unmarked) [RANHC-V] | 246.2 ± 1.2 | 79.5 ± 1.2 | 50 | 25 | 70 | TUNEL-positive |

More lines, main results first:

| IC50 [4] [µM] | SMILES | IC50 (MCF-10A cells) [µM] | M.I.C. E. coli [1] [µg/mL] | M.I.C. S. aureus [2] [µg/mL] | M.I.C. E. faecalis [3] [µg/mL] | apoptosis (TUNEL) (MDA-MB-231 cells) |
| --- | --- | --- | --- | --- | --- | --- |
| 512.3 ± 0.8 | COC(Cn1ccn(C)[c]1=[Ru]1[O]C(=O)C(=O)[O]1)c1ccccc1.Cc1ccc(C(C)C)cc1 (centres unmarked) [RANHC-IV] | > 100 | 50 | 25 | 50 | – |
| 214.8 ± 1.1 | COC(Cn1ccn(C)[c]1=[Ru]([I])[I])c1ccccc1.Cc1ccc(C(C)C)cc1 (centres unmarked) [RANHC-II] | > 100 | 50 | 25 | 50 | – |

Reference: article PMC10135378, “Synthesis of Novel N-Heterocyclic Carbene-Ruthenium (II) Complexes, “Precious” Tools with Antibacterial, Anticancer and Antioxidant Properties” (Antibiotics, 2023)
